Laboratory results published in publication PMC6369240, “Biological evaluation and structure activity relationship of 9-methyl-1-phenyl-9H-pyrido[3,4-b]indole derivatives as anti-leishmanial agents” (Bioorganic Chemistry, 2019).

Key:
[1] = HeLa cell cytotoxicity, Alamar blue assay; assay type: cell-based; settings: human; HeLa cells, ~65 h incubation plus 5 h Alamar Blue
Protocol: HeLa cell cytotoxicity studies were carried out as described previously. Briefly, the cells were cultured in DMEM supplemented with 10% fetal calf serum and 2 mM L-glutamine. Cells were plated at initial cell concentration of 2 × 10^4 cells/well and incubated with the compounds for ∼65 h prior to addition of Alamar Blue solution for further 5 h.

[2] = tested on: L. infantum JPCM5 MCAN/ES/98/LLM-87 promastigotes; assay: L. infantum promastigote assay (Alamar blue); assay type: cell-based, Leishmania infantum; settings: for S.I (CC50/IC50), L. infantum promastigote: HeLa CC50 / L. infantum promastigote EC50; for EC50: Leishmania infantum, 72 h, Alamar blue
Protocol: (§1) Anti-leishmanial activity of these analogues was determined by evaluating their inhibition activity against both promastigote, amastigote forms of Leishmania infantum and Leishmania donovani strains. […] Anti-leishmanial drugs miltefosine and pentamidine were used as standards for comparison purpose.
Anti-promastigote activity of these reported β-carboline derivatives was determined by Alamar blue assay method.
(§2) L. donovanipromastigotes were cultured at 37 °C in M199 medium supplemented with 10% heat-inactivated fetal calf serum. L. infantum JPCM5 MCAN/ES/98/LLM-87 promastigotes were cultured at 26 °C in modified Eagle’s medium (HOMEM). Parasites were incubated with serial dilutions of compounds for 72 h, followed by Alamar blue-based assay as previously described.

[3] = tested on: L. donovani promastigotes; assay: L. donovani promastigote assay (Alamar blue); assay type: cell-based, Leishmania donovani; settings: for S.I (CC50/IC50), L. donovani promastigote: HeLa CC50 / L. donovani promastigote EC50; for EC50: Leishmania donovani, 72 h, Alamar blue
Protocol: as §1
L. donovani promastigote inhibition potency of these reported β-carboline derivatives was determined by Alamar blue assay method.
as §2

[4] = tested on: L. donovani LdBOB axenic amastigotes; assay: L. donovani axenic amastigote assay (Alamar blue); assay type: cell-based, Leishmania donovani; settings: for S.I (CC50/IC50), L. donovani axenic amastigote: HeLa CC50 / L. donovani axenic amastigote EC50; for EC50: 72 h, Alamar blue
Protocol: (§3) L. donovaniLdBOB axenic amastigotes or L. infantum JPCM5 MCAN/ES/98/LLM-87 were cultured at 37 °C in modified Eagle’s medium (HOMEM; L. infantum) and axenic amastigotes were incubated for 72 h with compounds, followed by Alamar blue-based assay as previously described.

[5] = tested on: L. infantum JPCM5 MCAN/ES/98/LLM-87 axenic amastigotes; assay: L. infantum axenic amastigote assay (Alamar blue); assay type: cell-based, Leishmania infantum; settings: for S.I (CC50/IC50), L. infantum axenic amastigote: HeLa CC50 / L. infantum axenic amastigote EC50; for EC50: Leishmania infantum, 72 h, Alamar blue
Protocol: Alamar blue assay method was used to determine inhibition potential of these β-carboline derivatives against (human life stage forms) axenic amastigotes.
as §3

[6] = tested on: L. donovani LdBOB intracellular amastigotes in PMA differentiated THP-1 cells; assay: Intra macrophage L. donovani (amastigote) assay in THP-1 cells; assay type: cell-based, Leishmania donovani; settings: for S.I (CC50/IC50), L. donovani intracellular amastigote: HeLa CC50 / L. donovani intracellular amastigote EC50; for EC50: THP-1 macrophages, 72 h, microscopy readout
Protocol: Although, axenic amastigotes assay most commonly used to screen new leishmanial agents are different from intracellular amastigotes in terms of protein expression and drug susceptibility. […] THP-1 (human monocytic leukemia) cells were a kind gift from Dr Susan Wylie (Dundee) and maintained in minimal essential medium plus 10% (vol/vol) FBS. […] Briefly, THP-1 cells (20,000 per well, 200 μL) were plated into 96 well plates in presence of 10 nM PMA and incubated at 37 °C in 5% CO2 atmosphere for 75 h. […] Any remaining extracellular amastigotes were removed and the adhered cells were washed with the same supplemented PBS solution as above. Pre-aliquoted compounds in a serial dilution were added from another plate, such that the total well volume was 200 μL and incubated for further 72 h. Cells were fixed with 100% methanol, stained with Giemsa and examined microscopically.

[7] = Leishmania donovani, THP-1, 72 h

| Structure (SMILES) | melting point [°C] | EC50 [2] [µM] | EC50 [3] [µM] | EC50 ([4]; Leishmania donovani) [µM] | EC50 [5] [µM] | EC50 [6, 7] [µM] | EC50 [6] [µM] | EC50 [4] [µM] | CC50 [1] [µM] | S.I (CC50/IC50), L. infantum promastigote [2] | S.I (CC50/IC50), L. donovani promastigote [3] | S.I (CC50/IC50), L. donovani axenic amastigote [4] | S.I (CC50/IC50), L. infantum axenic amastigote [5] | S.I (CC50/IC50), L. donovani intracellular amastigote [6] |
| --- | --- | --- | --- | --- | --- | --- | --- | --- | --- | --- | --- | --- | --- | --- |
| Cc1ccc(N2CCN(C(=O)c3cc4c5ccccc5n(C)c4c(-c4ccccc4)n3)CC2)cc1 [7b, (9-methyl-1-phenyl-9H-pyrido[3,4-b]indol-3-yl)(4-p-tolylpiperazin-1-yl)methanone] | 188 to 190 | 24.3 ± 1.3 | 14.2 ± 1.2 | 5.8 ± 0.3 |  | 7.2 | 7.9 ± 0.4 |  | > 500 | >20.5 | >35.2 | 86.2 |  | 63.3 |
| COc1ccc(N2CCN(C(=O)c3cc4c5ccccc5n(C)c4c(-c4ccccc4)n3)CC2)cc1 [7d, (4-(4-methoxyphenyl)piperazin-1-yl)(9-methyl-1-phenyl-9H-pyrido[3,4-b]indol-3-yl)methanone] | 170 to 172 |  | 0.91 ± 0.09 | 0.91 | 1.4 ± 0.1 | 1.4 | 1.3 ± 0.1 | 0.9 ± 0.1 | > 500 | >314.5 | >549.5 | 555.6 | >357.1 | 384.6 |
| COc1cccc(N2CCN(C(=O)c3cc4c5ccccc5n(C)c4c(-c4ccccc4)n3)CC2)c1 [7e, (4-(3-methoxyphenyl)piperazin-1-yl)(9-methyl-1-phenyl-9H-pyrido[3,4-b]indol-3-yl)methanone] | 196 to 198 | 72.4 ± 6.7 | 28.5 ± 1.8 |  |  |  |  |  | > 500 | >6.9 | >17.5 |  |  |  |
| Cn1c2ccccc2c2cc(C(=O)N3CCN(c4ccncc4)CC3)nc(-c3ccccc3)c21 [7o, (9-methyl-1-phenyl-9H-pyrido[3,4-b]indol-3-yl)(4-(pyridin-4-yl)piperazin-1-yl)methanone] | 198 to 200 |  | 19.5 ± 2.8 | 13.9 ± 0.4 |  | 7.9 | 7.2 ± 0.5 |  | 29.7 ± 1.5 | 0.48 | 1.52 | 2.1 |  | 4.1 |
| N=C(N)c1ccc(OCCCCCOc2ccc(C(=N)N)cc2)cc1 [Pentamidine, reference compound] |  | 8.31 ± 0.18 | 6.4 ± 0.11 | 1.6 ± 0.1 | 2.7 ± 0.4 | 23.7 ± 1.8 |  |  |  |  |  |  |  |  |

The next lines start with results.

| melting point [°C] | EC50 [2] [µM] | EC50 [3] [µM] | EC50 ([4]; Leishmania donovani) [µM] | EC50 [5] [µM] | EC50 [6, 7] [µM] | EC50 [6] [µM] | EC50 [4] [µM] | Structure (SMILES) | CC50 [1] [µM] | S.I (CC50/IC50), L. infantum promastigote [2] | S.I (CC50/IC50), L. donovani promastigote [3] | S.I (CC50/IC50), L. donovani axenic amastigote [4] | S.I (CC50/IC50), L. infantum axenic amastigote [5] | S.I (CC50/IC50), L. donovani intracellular amastigote [6] |
| --- | --- | --- | --- | --- | --- | --- | --- | --- | --- | --- | --- | --- | --- | --- |
| 232 to 234 | 9.45 ± 0.82 | 11.9 ± 1.2 | 10 ± 0.3 | 4.5 ± 0.3 | 13.5 ± 2 |  |  | Cn1c2ccccc2c2cc(C(=O)N3CCN(c4ccccc4)CC3)nc(-c3ccccc3)c21 [7a, (9-methyl-1-phenyl-9H-pyrido[3,4-b]indol-3-yl)(4-phenylpiperazin-1-yl)methanone] | > 500 | >52.9 | >42.0 | 50.0 | >111.1 | 37.0 |
| 148 to 150 | 3.73 ± 0.28 | 9.45 ± 0.72 | 5.3 ± 0.4 | 2.6 ± 0.2 | 7.8 | 9.4 ± 1.3 |  | Cc1ccccc1N1CCN(C(=O)c2cc3c4ccccc4n(C)c3c(-c3ccccc3)n2)CC1 [7c, (9-methyl-1-phenyl-9H-pyrido[3,4-b]indol-3-yl)(4-o-tolylpiperazin-1-yl)methanone] | > 500 | >134.0 | >52.9 | 94.3 | >192.3 | 53.2 |
| 130 to 132 |  | 4 ± 0.25 | 3.5 |  | 7.9 | 7.8 ± 1.3 | 2.2 ± 0.1 | Cn1c2ccccc2c2cc(C(=O)N3CCN(c4cccc(Cl)c4)CC3)nc(-c3ccccc3)c21 [7h, (4-(3-chlorophenyl)piperazin-1-yl)(9-methyl-1-phenyl-9H-pyrido[3,4-b]indol-3-yl)methanone] | > 500 | >9.8 | >125 | 227.3 |  | 64.1 |
| 152 to 154 | 21.7 ± 0.6 | 15.2 ± 0.85 | 19.4 ± 1.2 |  | 22 ± 2.1 |  |  | Cn1c2ccccc2c2cc(C(=O)N3CCN(c4ccccc4Cl)CC3)nc(-c3ccccc3)c21 [7i, (4-(2-chlorophenyl)piperazin-1-yl)(9-methyl-1-phenyl-9H-pyrido[3,4-b]indol-3-yl)methanone] | > 500 | >23.0 | >32.9 | 25.8 |  | 22.7 |
| 168 to 170 | 64.9 ± 5.7 | 85.9 ± 7.3 |  |  |  |  |  | Cn1c2ccccc2c2cc(C(=O)N3CCN(c4ccccc4F)CC3)nc(-c3ccccc3)c21 [7l, (4-(2-fluorophenyl)piperazin-1-yl)(9-methyl-1-phenyl-9H-pyrido[3,4-b]indol-3-yl)methanone] | > 500 | >7.7 | >5.8 |  |  |  |
| 166 to 168 | 93 ± 7.5 | 118 ± 6.4 |  |  |  |  |  | Cn1c2ccccc2c2cc(C(=O)N3CCN(c4cccc(Cl)c4Cl)CC3)nc(-c3ccccc3)c21 [7m, (4-(2,3-dichlorophenyl)piperazin-1-yl)(9-methyl-1-phenyl-9H-pyrido[3,4-b]indol-3-yl)methanone] | > 500 | >5.3 | >4.3 |  |  |  |
| 158 to 160 | 20.4 ± 1.4 | 4.57 ± 0.24 | 2.2 |  | 5.6 ± 0.9 |  | 3.5 ± 0.2 | Cn1c2ccccc2c2cc(C(=O)N3CCN(Cc4ccccc4)CC3)nc(-c3ccccc3)c21 [7n, (4-benzylpiperazin-1-yl)(9-methyl-1-phenyl-9H-pyrido[3,4-b]indol-3-yl)methanone] | > 500 | >24.5 | >109.4 | 142.9 |  | 89.3 |
| 174 to 176 | 45.7 ± 3.3 | 8.5 ± 0.75 | 12.3 ± 0.6 |  | 9.4 | 7.9 ± 0.3 |  | Cn1c2ccccc2c2cc(C(=O)N3CCN(c4ccccn4)CC3)nc(-c3ccccc3)c21 [7p, (9-methyl-1-phenyl-9H-pyrido[3,4-b]indol-3-yl)(4-(pyridin-2-yl)piperazin-1-yl)methanone] | 273 ± 21.6 | 5.97 |  | 22.2 |  | 34.6 |
